# Results published in PMC5146859, “Phase 1/2 study of pacritinib, a next generation JAK2/FLT3 inhibitor, in myelofibrosis or other myeloid malignancies” (Journal of Hematology & Oncology, 2016).
# Where two headings read alike, the source gives them in different places.
# Assay: Phase 1 pharmacokinetics (liquid chromatography/tandem mass spectrometry)
# Format: in vivo, human
# Set-up: C24h, Mean / C24h, Median: unit not given here
# Details: for AUC(0-t) / Cmax / Tmax: human, in vivo
# Experimental: In phase 1, full PK sampling was performed on days 1 and 15 of cycle 1 and day 1 of cycle 2. Trough PK samples were drawn prior to dosing on days 8 and 22 of cycle 1 and at 24, 48, and 72 h after dosing on day 25 of cycle 1. A sample was collected before dosing on day 1 of cycles 4, 7, and 10. Pacritinib concentrations were determined using a validated liquid chromatography/tandem mass spectrometry method. An analysis of clinical exposures from the HCl and citrate salts of pacritinib was performed comparing Day 1 PK data from 12 patients who received the HCl salt formulation in the 200 mg cohorts of this study and two other pacritinib studies [NCT00741871 and NCT00745550]) with six patients in the 200 mg cohort of this study who received the citrate salt formulation.
# [1] = phase 1, Day 1, 200 mg (HCl and citrate salt cohorts pooled)
# [2] = phase 1, Day 15, 200 mg (HCl and citrate salt cohorts pooled)
structure (smiles),measurement,setting,value
"C1=C/COCc2cc(ccc2OCCN2CCCC2)Nc2nccc(n2)-c2cccc(c2)COC/1 [pacritinib, 11-(2-pyrrolidin-1-yl-ethoxy)-14,19-dioxa-5,7,26-triaza-tetracyclo[19.3.1.1(2,6). 1(8,12)]heptacosa-1(25),2(26),3,5,8,10,12(27),16,21,23-decaene]",AUC(0-t),"oral, 500 mg, phase 1, Day 15, 500 mg, read-out: AUC0-24h, Median",161 µg·h/mL
same,Cmax,"oral, 500 mg, phase 1, Day 15, 500 mg, read-out: Cmax, Mean",8730 ng/mL
same,Cmax,"oral, 500 mg, phase 1, Day 15, 500 mg, read-out: Cmax, Median",7990 ng/mL
same,AUC(0-t),"oral, 600 mg, phase 1, Day 1, 600 mg, read-out: AUC0-24h, Mean",136 µg·h/mL
same,AUC(0-t),"oral, 600 mg, phase 1, Day 1, 600 mg, read-out: AUC0-24h, Median",129 µg·h/mL
same,Cmax,"oral, 600 mg, phase 1, Day 1, 600 mg, read-out: Cmax, Mean",8330 ng/mL
same,Cmax,"oral, 600 mg, phase 1, Day 1, 600 mg, read-out: Cmax, Median",7880 ng/mL
same,Tmax,"oral, 600 mg, phase 1, Day 1, 600 mg, read-out: Tmax, Median",4.5 h
same,AUC(0-t),"oral, 600 mg, phase 1, Day 15, 600 mg, read-out: AUC0-24h, Mean",161 µg·h/mL
same,AUC(0-t),"oral, 600 mg, phase 1, Day 15, 600 mg, read-out: AUC0-24h, Median",161 µg·h/mL
same,Cmax,"oral, 600 mg, phase 1, Day 15, 600 mg, read-out: Cmax, Mean",9220 ng/mL
same,Cmax,"oral, 600 mg, phase 1, Day 15, 600 mg, read-out: Cmax, Median",8560 ng/mL
same,Tmax,"oral, phase 1, day 1, 100-600 mg, read-out: Median time to maximum concentration (Tmax), range over dose cohorts",4 to 8 h
same,Tmax,"oral, phase 1, day 15, 100-600 mg, read-out: Median time to maximum concentration (Tmax), range over dose cohorts",2.5 to 5 h
same,AUC(0-t),"po, 200 mg, phase 1, Day 1, 200 mg (HCl and citrate salt cohorts pooled), read-out: AUC0-24h, Mean",93.3 µg·h/mL
same,AUC(0-t),"po, 200 mg, phase 1, Day 1, 200 mg (HCl and citrate salt cohorts pooled), read-out: AUC0-24h, Median",87.3 µg·h/mL
same,Cmax,"po, 200 mg, phase 1, Day 1, 200 mg (HCl and citrate salt cohorts pooled), read-out: Cmax, Mean",5000 ng/mL
same,Cmax,"po, 200 mg, phase 1, Day 1, 200 mg (HCl and citrate salt cohorts pooled), read-out: Cmax, Median",4570 ng/mL
same,Tmax,"po, 200 mg, phase 1, Day 1, 200 mg (HCl and citrate salt cohorts pooled), read-out: Tmax, Median",5 h
same,AUC(0-t),"po, 200 mg, phase 1, Day 15, 200 mg (HCl and citrate salt cohorts pooled), read-out: AUC0-24h, Mean",125 µg·h/mL
same,AUC(0-t),"po, 200 mg, phase 1, Day 15, 200 mg (HCl and citrate salt cohorts pooled), read-out: AUC0-24h, Median",130 µg·h/mL
same,Cmax,"po, 200 mg, phase 1, Day 15, 200 mg (HCl and citrate salt cohorts pooled), read-out: Cmax, Mean",6700 ng/mL
same,Cmax,"po, 200 mg, phase 1, Day 15, 200 mg (HCl and citrate salt cohorts pooled), read-out: Cmax, Median",6450 ng/mL
same,Tmax,"po, 200 mg, phase 1, Day 15, 200 mg (HCl and citrate salt cohorts pooled), read-out: Tmax, Median",5 h
same,"C24h, Mean","phase 1, Day 1, 100 mg",2440
same,"C24h, Median","phase 1, Day 1, 100 mg",2318
same,"C24h, Mean","phase 1, Day 1, 150 mg",3113
same,"C24h, Median","phase 1, Day 1, 150 mg",2316
same,"C24h, Mean",[1],3921
same,"C24h, Median",[1],3026
same,"C24h, Mean","phase 1, Day 1, 300 mg",4213
same,"C24h, Median","phase 1, Day 1, 300 mg",3528
same,"C24h, Mean","phase 1, Day 1, 400 mg",5644
same,"C24h, Median","phase 1, Day 1, 400 mg",4725
same,"C24h, Mean","phase 1, Day 1, 500 mg",5899
same,"C24h, Median","phase 1, Day 1, 500 mg",4417
same,"C24h, Mean","phase 1, Day 1, 600 mg",5093
same,"C24h, Median","phase 1, Day 1, 600 mg",4136
same,"C24h, Mean","phase 1, Day 15, 100 mg",3945
same,"C24h, Median","phase 1, Day 15, 100 mg",4322
same,"C24h, Mean","phase 1, Day 15, 150 mg",5428
same,"C24h, Median","phase 1, Day 15, 150 mg",5026
same,"C24h, Mean",[2],4852
same,"C24h, Median",[2],4993
same,"C24h, Mean","phase 1, Day 15, 300 mg",4965
same,"C24h, Median","phase 1, Day 15, 300 mg",4850
same,"C24h, Mean","phase 1, Day 15, 400 mg",8429
same,"C24h, Median","phase 1, Day 15, 400 mg",10168
same,"C24h, Mean","phase 1, Day 15, 500 mg",6550
same,"C24h, Median","phase 1, Day 15, 500 mg",5685
same,"C24h, Mean","phase 1, Day 15, 600 mg",6439
same,"C24h, Median","phase 1, Day 15, 600 mg",5417
same,Between-patient coefficient of variation for Cmax and AUC0–24,"phase 1, day 1",25 to 63%
same,"Dose proportionality of exposure (Cmax, C24, AUC0–24)","phase 1, day 1",less than dose-proportional
same,Between-patient coefficient of variation for Cmax and AUC0–24,"phase 1, day 15",20–54%
same,"Dose dependence of exposure (Cmax, C24, AUC0–24)","phase 1, day 15",plateau above the 400 mg dose level
